Columns and labels:
Type in all cases: cell-based
human A1 receptor = molecular target: T1, human A1 receptor (Homo sapiens, UniProt P30542); assay: functional cAMP (HTRF) assay, recombinant CHO cells expressing human A1 receptor, forskolin, agonist CPA
T1 construct: expressed in transfected cells; host or cells: CHO
T1 sequence (P30542 1-326): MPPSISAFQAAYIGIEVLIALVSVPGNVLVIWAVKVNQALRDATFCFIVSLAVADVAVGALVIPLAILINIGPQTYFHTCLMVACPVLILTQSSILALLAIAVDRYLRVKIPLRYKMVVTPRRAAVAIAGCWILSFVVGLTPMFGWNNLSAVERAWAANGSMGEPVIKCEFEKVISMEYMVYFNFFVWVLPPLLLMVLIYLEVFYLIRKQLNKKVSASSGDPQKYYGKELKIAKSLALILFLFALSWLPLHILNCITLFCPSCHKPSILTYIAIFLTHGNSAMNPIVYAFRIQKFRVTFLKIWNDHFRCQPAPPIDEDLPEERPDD
Procedure: The functional activities of human A2A, A2B, A1 and A3 receptors were determined by quantification of cAMP, being the second messenger for adenosine receptors.
For human A1 and A3 receptors, recombinant CHO cells, expressing either A1 or A3-receptor, were used. As both receptors couple to Gi proteins, the assay protocol was adapted:
Cells were seeded into 384-well plates, forskolin, test compounds and agonists (CPA for A1- and IB-MECA for A3-receptor) were added. After 30 min incubation, HTRF reagents (cAMP dynamic 2, Cis Bio) were added and the cellular cAMP levels were determined using the ENVISION (Perkin Elmer) plate reader. Obtained raw data were normalized against the inhibitor control and the neural control (DMSO) and the normalized data were fitted using GeneData software.

human A3 receptor = molecular target: T2, human A3 receptor (Homo sapiens, UniProt P0DMS8); assay: functional cAMP (HTRF) assay, recombinant CHO cells expressing human A3 receptor, forskolin, agonist IB-MECA
T2 construct: expressed in transfected cells; host or cells: CHO
T2 sequence (P0DMS8 1-318): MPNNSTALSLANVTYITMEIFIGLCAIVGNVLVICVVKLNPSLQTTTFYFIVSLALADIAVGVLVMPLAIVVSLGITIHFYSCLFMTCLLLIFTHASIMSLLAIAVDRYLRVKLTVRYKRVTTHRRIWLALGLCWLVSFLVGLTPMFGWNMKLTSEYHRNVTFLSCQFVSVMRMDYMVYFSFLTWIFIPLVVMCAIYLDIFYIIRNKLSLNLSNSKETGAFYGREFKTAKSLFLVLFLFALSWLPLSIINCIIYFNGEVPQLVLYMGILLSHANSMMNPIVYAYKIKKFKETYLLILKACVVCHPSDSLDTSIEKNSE
Method in brief: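 Recombinant CHO cells expressing A1 or A3 receptor (Gi-coupled) were stimulated with forskolin together with test compound and agonist (CPA for A1, IB-MECA for A3), incubated 30 min, then cellular cAMP was read by HTRF. Data were normalized to inhibitor control and DMSO neutral control, then curve-fitted.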

human A2A receptor = molecular target: T3, human A2A receptor (Homo sapiens, UniProt P29274); assay: functional cAMP (HTRF) assay, recombinant HEK293 cells expressing human A2A receptor, agonist NECA
T3 construct: expressed in transfected cells; host or cells: HEK293

A2B receptors = molecular target: T4, A2B receptors (Homo sapiens, UniProt P29275); assay: functional cAMP (HTRF) assay, recombinant HEK293 cells expressing human A2B receptor, agonist NECA; set-up: expressed in transfected cells; host or cells: HEK293
T4 sequence (P29275 1-332): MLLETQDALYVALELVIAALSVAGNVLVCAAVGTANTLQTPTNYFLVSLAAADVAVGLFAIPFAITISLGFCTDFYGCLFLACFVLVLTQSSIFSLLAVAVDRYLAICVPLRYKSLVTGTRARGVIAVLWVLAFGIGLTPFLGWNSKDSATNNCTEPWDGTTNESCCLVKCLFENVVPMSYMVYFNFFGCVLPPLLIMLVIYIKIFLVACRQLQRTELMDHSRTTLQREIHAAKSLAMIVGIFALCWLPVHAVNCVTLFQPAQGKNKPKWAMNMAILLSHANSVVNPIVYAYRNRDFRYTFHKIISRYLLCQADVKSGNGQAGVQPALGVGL

T3 sequence (P29274 whole entry): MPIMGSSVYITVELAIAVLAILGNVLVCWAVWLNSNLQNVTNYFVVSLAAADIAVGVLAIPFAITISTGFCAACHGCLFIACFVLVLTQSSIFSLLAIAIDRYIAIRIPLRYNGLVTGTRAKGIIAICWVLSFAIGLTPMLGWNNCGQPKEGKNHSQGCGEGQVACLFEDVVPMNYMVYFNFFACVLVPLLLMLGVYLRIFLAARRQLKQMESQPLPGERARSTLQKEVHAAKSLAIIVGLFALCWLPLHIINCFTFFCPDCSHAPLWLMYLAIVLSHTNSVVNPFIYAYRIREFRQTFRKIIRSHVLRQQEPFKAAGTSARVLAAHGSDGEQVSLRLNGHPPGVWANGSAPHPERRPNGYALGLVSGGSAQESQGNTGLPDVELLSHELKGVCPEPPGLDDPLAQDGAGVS

COc1ccc(-c2ccccc2)c2[nH]c(NC(=O)c3ccc(C(=O)NCCO)cc3)nc12 [compound 312, N1-(2-hydroxyethyl)-N4-(4-methoxy-7-phenyl-1H-1,3-benzodiazol-2-yl)benzene-1,4-dicarboxamide]
IC50 (human A1 receptor): < 1000 nM
IC50 (human A3 receptor): < 1000 nM
IC50 (human A2A receptor): < 10 nM
IC50 (A2B receptors): < 10 nM

COc1ccc(N2CCOCC2)c2nc(NC(=O)c3ccc(Cn4ccnc4)cc3)[nH]c12 [compound 76, 4-[(1H-imidazol-1-yl)methyl]-N-[7-methoxy-4-(morpholin-4-yl)-1H-1,3-benzodiazol-2-yl]benzamide]
IC50 (human A1 receptor): > 1000 nM
IC50 (human A3 receptor): > 1000 nM
IC50 (human A2A receptor): < 10 nM
IC50 (A2B receptors): < 1000 nM

COc1ccc(-c2ccc(F)cc2)c2nc(NC(=O)c3ccc(C(=O)N(C)C)cc3)[nH]c12 [compound 316, N4-[4-(4-fluorophenyl)-7-methoxy-1H-1,3-benzodiazol-2-yl]-N1,N1-dimethylbenzene-1,4-dicarboxamide]
IC50 (human A1 receptor): < 1000 nM
IC50 (human A3 receptor): < 1000 nM
IC50 (human A2A receptor): < 10 nM
IC50 (A2B receptors): < 10 nM

COc1ccc(-c2cnn(C)c2)c2nc(NC(=O)c3ccc(CN4CCOCC4)cc3)[nH]c12 [compound 152, N-[7-methoxy-4-(1-methyl-1H-pyrazol-4-yl)-1H-1,3-benzodiazol-2-yl]-4-[(morpholin-4-yl)methyl]benzamide]
IC50 (human A1 receptor): > 1000 nM
IC50 (human A3 receptor): < 1000 nM
IC50 (human A2A receptor): < 100 nM
IC50 (A2B receptors): < 1000 nM

COc1ccc(-c2cccc(F)c2)c2nc(NC(=O)c3ccc(C(=O)N(C)C)cc3)[nH]c12 [compound 240, N4-[4-(3-fluorophenyl)-7-methoxy-1H-1,3-benzodiazol-2-yl]-N1,N1-dimethylbenzene-1,4-dicarboxamide]
IC50 (human A1 receptor): < 1000 nM
IC50 (human A3 receptor): < 1000 nM
IC50 (human A2A receptor): < 10 nM
IC50 (A2B receptors): < 10 nM

COc1ccc(-c2ccccc2)c2nc(NC(=O)c3ccc(N4C(=O)CCC4=O)cc3)[nH]c12 [compound 285, 4-(2,5-dioxopyrrolidin-1-yl)-N-(7-methoxy-4-phenyl-1H-1,3-benzodiazol-2-yl)benzamide]
IC50 (human A1 receptor): < 1000 nM
IC50 (human A3 receptor): < 1000 nM
IC50 (human A2A receptor): < 100 nM
IC50 (A2B receptors): < 10 nM

COc1ccc(-c2cccnc2)c2nc(NC(=O)c3ccc(C(=O)N(C)C)cc3)[nH]c12 [compound 259, N4-[7-methoxy-4-(pyridin-3-yl)-1H-1,3-benzodiazol-2-yl]-N1,N1-dimethylbenzene-1,4-dicarboxamide]
IC50 (human A1 receptor): < 1000 nM
IC50 (human A3 receptor): > 1000 nM
IC50 (human A2A receptor): < 10 nM
IC50 (A2B receptors): < 10 nM

COc1ccc(-c2ccccc2)c2nc(NC(=O)N3CCC(F)(F)CC3)[nH]c12 [compound 287, 4,4-difluoro-N-(7-methoxy-4-phenyl-1H-1,3-benzodiazol-2-yl)piperidine-1-carboxamide]
IC50 (human A1 receptor): < 1000 nM
IC50 (human A3 receptor): > 1000 nM
IC50 (human A2A receptor): < 100 nM
IC50 (A2B receptors): < 100 nM

COc1ccc(C2=CCOCC2)c2nc(NC(=O)C3CC3)[nH]c12 [compound 314, N-[4-(3,6-dihydro-2H-pyran-4-yl)-7-methoxy-1H-1,3-benzodiazol-2-yl]cyclopropanecarboxamide]
IC50 (human A1 receptor): > 1000 nM
IC50 (human A3 receptor): < 1000 nM
IC50 (human A2A receptor): < 100 nM
IC50 (A2B receptors): < 1000 nM

COCCn1cc(C(=O)Nc2nc3c(C4CCOCC4)ccc(OC)c3[nH]2)cn1 [compound 225, N-[7-methoxy-4-(oxan-4-yl)-1H-1,3-benzodiazol-2-yl]-1-(2-methoxyethyl)-1H-pyrazole-4-carboxamide]
IC50 (human A1 receptor): > 1000 nM
IC50 (human A3 receptor): > 1000 nM
IC50 (human A2A receptor): < 10 nM
IC50 (A2B receptors): < 100 nM

COc1ccc(-c2cnn(C)c2)c2nc(NC(=O)c3ccnc(N4CC[C@](C)(O)C4)c3)[nH]c12 [compound 104, 2-[(3S)-3-hydroxy-3-methylpyrrolidin-1-yl]-N-[7-methoxy-4-(1-methyl-1H-pyrazol-4-yl)-1H-1,3-benzodiazol-2-yl]pyridine-4-carboxamide]
IC50 (human A1 receptor): > 1000 nM
IC50 (human A3 receptor): < 1000 nM
IC50 (human A2A receptor): < 10 nM
IC50 (A2B receptors): > 1000 nM
